According to US8901035B2, “Herbicidal compositions comprising 4-amino-3-chloro-5-fluoro-6-(4-chloro-2-fluoro-3-methoxyphenyl) pyridine-2-carboxylic acid or a derivative thereof and cellulose biosynthesis inhibitor herbicides” (Dow AgroSciences LLC, priority 2012, dated 2014):

Key:
Format in all cases: in vivo
[1] = tested on: Chenopodium album L. (CHEAL); assay: Postemergence herbicidal activity of mixtures in cereal crops in the greenhouse
Experimental: (§1) Seeds of the desired test plant species were planted in Sun Gro MetroMix 306 planting mixture, which typically has a pH of 6.0 to 6.8 and an organic matter content of about 30 percent, in plastic pots with a surface area of 103.2 square centimeters (cm^2). When required to ensure good germination and healthy plants, a fungicide treatment and/or other chemical or physical treatment was applied. The plants were grown for 7-36 days in a greenhouse with an approximate 14 hour photoperiod which was maintained at about 18° C. during the day and about 17° C. during the night. Nutrients and water were added on a regular basis and supplemental lighting was provided with overhead metal halide 1000-Watt lamps as necessary. The plants were employed for testing when they reached the second or third true leaf stage.
(§2) Treatments consisted of the benzyl ester of 4-amino-3-chloro-5-fluoro-6-(4-chloro-2-fluoro-3-methoxy-phenyl)pyridine-2-carboxylic acid (Compound A), formulated as an SC, a second cereal herbicide alone and then both in combination.
(§3) Other herbicidal components were applied on an active ingredient basis and included cellulose biosynthesis inhibiting herbicides.
(§4) Measured aliquots of benzyl ester of 4-amino-3-chloro-5-fluoro-6-(4-chloro-2-fluoro-3-methoxy-phenyl)pyridine-2-carboxylic acid (Compound A) were placed in 25 milliliter (mL) glass vials and diluted in a volume of 1.25% (v/v) Agri-Dex® crop oil concentrate to obtain stock solutions. Compound requirements are based upon a 12 mL application volume at a rate of 187 liters per hectare (L/ha). Spray solutions of the second cereal herbicide and experimental compound mixtures were prepared by adding the stock solutions to the appropriate amount of dilution solution to form 12 mL spray solution with active ingredients in two- and three-way combinations. Formulated compounds were applied to the plant material with an overhead Mandel track sprayer equipped with an 8002E nozzle calibrated to deliver 187 L/ha over an application area of 0.503 square meters (m^2) at a spray height of 18 inches (46 cm) above average plant canopy. Control plants were sprayed in the same manner with the solvent blank.
(§5) The treated plants and control plants were placed in a greenhouse as described above and watered by sub-irrigation to prevent wash-off of the test compounds. After 20-22 days, the condition of the test plants as compared with that of the control plants was determined visually and scored on a scale of 0 to 100 percent where 0 corresponds to no injury and 100 corresponds to complete kill.
(§6) Colby's equation was used to determine the herbicidal effects expected from the mixtures (Colby, S. R. 1967. Calculation of the synergistic and antagonistic response of herbicide combinations. Weeds 15:20-22).
(§7) The following equation was used to calculate the expected activity of mixtures containing two active ingredients, A and B: Expected=A+B−(A×B/100)
(§8) A=observed efficacy of active ingredient A at the same concentration as used in the mixture.
(§9) B=observed efficacy of active ingredient B at the same concentration as used in the mixture.

[2] = tested on: Cirsium arvense (L.) Scop. (CIRAR); assay: as above
Experimental: as §1, §2, §3, §4, §5, §6, §7, §8, §9

[3] = tested on: Galium aparine L. (GALAP); assay: as above
Experimental: as §1, §2, §3, §4, §5, §6, §7, §8, §9

[4] = tested on: Abutilon theophrasti Medik. (ABUTH); assay: Pre-emergence soil-applied herbicidal mixtures for weed control (greenhouse)
Description: (§10) Seeds or nutlets of the desired test plant species were planted in a soil matrix prepared by mixing a loam soil (e.g., 32 percent silt, 23 percent clay, and 45 percent sand, with a pH of about 6.5 and an organic matter content of about 1.9 percent) and calcareous grit in an 80 to 20 ratio. The soil matrix was contained in plastic pots with a volume of 1 quart and a surface area of 83.6 square centimeters (cm^2).
(§11) Treatments consisted of the benzyl ester of 4-amino-3-chloro-5-fluoro-6-(4-chloro-2-fluoro-3-methoxy-phenyl)pyridine-2-carboxylic acid (compound A) formulated as an SC (suspension concentrate) and various herbicidal components alone and in combination. Forms of compound A were applied on an acid equivalent basis.
(§12) Other herbicidal components were applied on an acid equivalent or active ingredient basis and included the cellulose biosynthesis inhibiting herbicides, isoxaben formulated as Gallery® 75DF and indaziflam formulated as Specticle® 20WSP.
(§13) Treatment requirements were calculated based upon the rates being tested, the concentration of active ingredient or acid equivalent in the formulation, and a 12 mL application volume at a rate of 187 L/ha.
(§14) For treatments comprised of formulated compounds, measured amounts of compounds were placed individually in 25 mL glass vials and diluted in a volume of 1.25% (v/v) Agri-Dex® crop oil concentrate (COC) to obtain 12× stock solutions. […] Application solutions were prepared by adding an appropriate amount of each stock solution (e.g., 1 mL) and diluted to the appropriate final concentrations with the addition of 10 mL of an aqueous mixture of 1.25% (v/v) COC so that the final spray solutions contained 1.25% (v/v) COC.
(§15) All stock solutions and applications solutions were visually inspected for compound compatibility prior to application. Spray solutions were applied to the soil with an overhead Mandel track sprayer equipped with a 8002E nozzles calibrated to deliver 187 L/ha over an application area of 0.503 m^2 at a spray height of 18 inches (46 cm) above average pot height. Control pots were sprayed in the same manner with the solvent blank.
(§16) The treated and control pots were placed in a greenhouse and top watered as needed. When required to ensure good germination and healthy plants, a fungicide treatment and/or other chemical or physical treatment was applied. The pots were maintained in a greenhouse with an approximate 14 hr. photoperiod which was maintained at about 29° C. during the day and 26° C. during the night. Nutrients (Peters® Excel 15-5-15 5-Ca 2-Mg) were applied in the irrigation solution as needed and water was added on a regular basis. Supplemental lighting was provided with overhead metal halide 1000-Watt lamps as necessary. After approximately 4 weeks, the condition of the test plants as compared with that of the untreated plants was determined visually and scored on a scale of 0 to 100 percent where 0 corresponds to no injury or growth inhibition and 100 corresponds to complete kill.
as §6, §7, §8, §9

[5] = tested on: Ipomoea hederacea (L.) Jacq. (IPOHE); assay: as above
Description: as §10, §11, §12, §13, §14, §15, §16, §6, §7, §8, §9

[6] = tested on: Setaria faberi Herrm. (SETFA); assay: as above
Description: as §10, §11, §12, §13, §14, §15, §16, §6, §7, §8, §9

[7] = tested on: Xanthium strumarium L. (XANST); assay: as above
Description: as §10, §11, §12, §13, §14, §15, §16, §6, §7, §8, §9

[8] = Compound A Benzyl Ester 2.5 g ai/ha alone
[9] = Compound A Benzyl Ester 5 g ai/ha alone
[10] = Compound A Benzyl Ester 10 g ai/ha alone
[11] = Compound A Benzyl Ester 16 g ae/ha alone
[12] = Compound A Benzyl Ester 32 g ae/ha alone

COc1c(Cl)ccc(-c2nc(C(=O)OCc3ccccc3)c(Cl)c(N)c2F)c1F [Compound A Benzyl Ester, benzyl ester of 4-amino-3-chloro-5-fluoro-6-(4-chloro-2-fluoro-3-methoxy-phenyl)pyridine-2-carboxylic acid]
Visual Weed Control (%) - 21 DAA CHEAL Obs [1, 8]: 50% | Visual Weed Control (%) - 21 DAA CHEAL Obs [1, 9]: 58% | Visual Weed Control (%) - 21 DAA Obs [2, 9]: 39% | Visual Weed Control (%) - 21 DAA Obs [2, 10]: 60% | Visual Weed Control (%) - 21 DAA Obs [3, 8]: 55% | Visual Weed Control (%) - 21 DAA Obs [3, 9]: 66% | Visual Weed Control (%) - 21 DAA Obs [3, 10]: 77% | Visual Weed Control (%) - 27 DAA ABUTH Obs [4, 11]: 48% | Visual Weed Control (%) - 27 DAA ABUTH Obs [4, 12]: 87% | Visual Weed Control (%) - 28 DAA IPOHE Obs [5, 11]: 13% | Visual Weed Control (%) - 28 DAA IPOHE Obs [5, 12]: 23% | Visual Weed Control (%) - 27 DAA SETFA Obs [6, 11]: 8% | Visual Weed Control (%) - 27 DAA SETFA Obs [6, 12]: 15% | Visual Weed Control (%) - 28 DAA XANST Obs [7, 11]: 0% | Visual Weed Control (%) - 28 DAA XANST Obs [7, 12]: 5%

CCC(C)(CC)c1cc(NC(=O)c2c(OC)cccc2OC)on1 [Isoxaben, N-[3-(1-ethyl-1-methylpropyl)-5-isoxazolyl]-2,6-dimethoxybenzamide, reference compound]
Visual Weed Control (%) - 21 DAA CHEAL Obs ([1]; Isoxaben 31.25 g ai/ha alone): 5% | Visual Weed Control (%) - 21 DAA CHEAL Obs ([1]; Isoxaben 62.5 g ai/ha alone): 5% | Visual Weed Control (%) - 21 DAA Obs ([2]; Isoxaben 31.25 g ai/ha alone): 3% | Visual Weed Control (%) - 21 DAA Obs ([2]; Isoxaben 62.5 g ai/ha alone): 13% | Visual Weed Control (%) - 21 DAA Obs ([2]; Isoxaben 125 g ai/ha alone): 17% | Visual Weed Control (%) - 21 DAA Obs ([3]; Isoxaben 31.25 g ai/ha alone): 0% | Visual Weed Control (%) - 21 DAA Obs ([3]; Isoxaben 62.5 g ai/ha alone): 8% | Visual Weed Control (%) - 21 DAA Obs ([3]; Isoxaben 125 g ai/ha alone): 12% | Visual Weed Control (%) - 27 DAA ABUTH Obs ([4]; Isoxaben 560 g ai/ha alone): 77% | Visual Weed Control (%) - 27 DAA ABUTH Obs ([4]; Isoxaben 1120 g ai/ha alone): 67%
